Data: patent EP0307553B1, “Modified splenopentines, their process of preparation and their use” (priority 1987, dated 1989)
Entries after “also recorded” stand apart in the source; their conditions may differ. Where two headings read alike, the source gives them in different places.

What was measured:
NMRI-Mäuse = assay type: in vivo; conditions: i. p., without DAc-SP5
Text: Der Einfluß von DAc-SP5 und immunsuppressiv wirkenden Verbindungen auf die Antigen-spezifische IgM-Antwort bei Mäusen wurde untersucht. Die erhaltenen Ergebnisse sind in den Fig.1 und 2 dargestellt.
DAc-SP5 rekonstituiert bereits durch wenige aufeinanderfolgende Applikationen die chemisch induzierts Suppression der humoralen Immunantwort.

männlichen Balb/c-Mäusen = conditions: in vivo
AB/Bln.-Mäuse = assay: Antibody formation against sheep erythrocytes (Jerne plaque test) after sublethal X-ray irradiation; assay type: in vivo; conditions: 600 c Gy; 10 or 50 µg i.p. every second day; untreated irradiated animals 48 days
Text: N^ε-MAc-SP5 (Sequenz 32 bis 36 des Milzhormons Splenin) hat die gleichen bzw. ähnliche immunbiologische Wirkungen wie das Gesamtmolekül Splenin. […] Funktionstüchtige T-Helferlymphocyten stimulieren die Antikörperbildung. Zum Nachweis einer Erhöhung der Antikörper-Bildung durch N^ε-MAc-SP5 wurde ein relevantes tierexperimentelles Modell gewählt: AB/Bln.-Mäuse wurden mit Röntgenstrahlen subletal bestrahlt und danach mit bzw. ohne N^ε-MAc-SP5 therapiert. Gleichzeitig erfolgte die Immunisierung der Tiere mit Schafserythrocyten. Da subletal bestrahlte Tiere die Fähigkeit verlieren, quantitativ ausreichend Antikörper zu produzieren, ist eine vermehrte Bildung von Antikörpern gegen Schafserythrocyten bei den mit N^ε-MAc-SP5 behandelten Tieren ein Maß für die Regeneration des Immunsystems durch N^ε-MAc-SP5. Mit N^ε-MAc-SP5 behandelte Tiere konnten bereits nach 34 Tagen Antikörper in gleicher Menge wie unbestrahlte Kontrolltiere bilden. Im Vergleich dazu waren nicht mit N^ε-MAc-SP5 behandelte Tiere dazu erst 48 Tage nach der einmaligen Röntgenbestrahlung befähigt. […]

[1] = system: T4-Antigenen auf der Oberfläche menschlicher Lymphocyten; assay: Increase of T4 antigens on the surface of human lymphocytes of SLE patients in vitro (monoclonal antibodies); assay type: cell-based, Mensch
Text: N^ε-MAc-SP5 (Sequenz 32 bis 36 des Milzhormons Splenin) hat die gleichen bzw. ähnliche immunbiologische Wirkungen wie das Gesamtmolekül Splenin. […] Funktionstüchtige T-Helferlymphocyten stimulieren die Antikörperbildung. Zum Nachweis einer Erhöhung der Antikörper-Bildung durch N^ε-MAc-SP5 wurde ein relevantes tierexperimentelles Modell gewählt: AB/Bln.-Mäuse wurden mit Röntgenstrahlen subletal bestrahlt und danach mit bzw. ohne N^ε-MAc-SP5 therapiert. Gleichzeitig erfolgte die Immunisierung der Tiere mit Schafserythrocyten. Da subletal bestrahlte Tiere die Fähigkeit verlieren, quantitativ ausreichend Antikörper zu produzieren, ist eine vermehrte Bildung von Antikörpern gegen Schafserythrocyten bei den mit N^ε-MAc-SP5 behandelten Tieren ein Maß für die Regeneration des Immunsystems durch N^ε-MAc-SP5. Mit N^ε-MAc-SP5 behandelte Tiere konnten bereits nach 34 Tagen Antikörper in gleicher Menge wie unbestrahlte Kontrolltiere bilden. Im Vergleich dazu waren nicht mit N^ε-MAc-SP5 behandelte Tiere dazu erst 48 Tage nach der einmaligen Röntgenbestrahlung befähigt.
Funktionstüchtige (reife) T-Helferlymphocyten besitzen auf ihrer Oberfläche T4-Antigene, T-Suppressorlymphocyten T8-Antigene. Bei Patienten mit Systemischem Lupus Erythematodes (SLE) wurde mittels monoklonaler Antikörper ein verminderter Gehalt von T4-Antigenen auf der Lymphocytenoberfläche bestimmt. […]

[2] = system: Lymphocyten der SLE-Patienten; assay: 3H-thymidine incorporation of lymphocytes of SLE patients; assay type: cell-based, Mensch; conditions: after contact with N^ε-MAc-SP5; n = 5; no significant deviation from no contact (t-test)
Text: T4-Antigene nehmen zu, wenn sich T4-Zellen vermehren bzw., wenn die Antigene vermehrt auf ihrer Oberfläche exprimiert werden. Die Untersuchungen ergaben, daß die Lymphocyten der SLE-Patienten nach Kontakt mit N^ε-MAc-SP5 keine erhöhten ³H-Thymidineinbauraten aufwiesen (910 ± 180 Impulse je Minute ohne N^ε-MAc-SP-5-Kontakt/820 ± 210 Impulse je Minute nach Kontakt mit N^ε-MAc-SP5; n = 5, keine signifikante Abweichung im t-Test). Es ist daher anzunehmen, daß die Zunahme der T4-Antigene nicht durch eine Vermehrung von T4-Zellen zustandekommt, sondern Folge einer strukturellen Veränderung der T-Zelloberfläche, möglicherweise identisch mit einem "Reifeprozeß" der Zelle, ist.

In the case of `O=P1(N(CCCl)CCCl)NCCCO1` (centres unmarked) [Cyclophosphamid], the “Antigen-spezifischen IgM-Antwort” value (NMRI-Mäuse; single dose 7,2 mg/Tier) is reported as “nahezu vollständige Suppression”.

In the case of `C[C@@H]1C[C@H]2[C@@H]3CCC4=CC(=O)C=C[C@]4(C)[C@@]3(F)[C@@H](O)C[C@]2(C)[C@@]1(O)C(=O)CO` [Dexamethason], the “Antigen-spezifischen IgM-Antwort” value (NMRI-Mäuse; 0,2 mg/Tier or 0,08 mg/Tier) is reported as “Reduktion”.

With `CCO` [Ethanol] the “% phagocytierende Peritonealzellen” value (männlichen Balb/c-Mäusen) was 29,0±1,7%, the “Milzmasse (mg)” value (männlichen Balb/c-Mäusen) was 60,0±3,2 mg and the Phagocytoseindex (männlichen Balb/c-Mäusen) was 3,0±0,08. The “Plaque-bildende Zellen der Milz pro 10⁶ Zellen (Jerne-Plaquetest)” value (männlichen Balb/c-Mäusen) was 61,3±3,8 pro 10⁶ Zellen and the “Thymusmasse (mg)” value (männlichen Balb/c-Mäusen) was 15,0±2,6 mg.

“Arginyl(N^ε-acetyl-lysyl)glutamylvalyl)tyrpsin [N^ε-MAc-SP5]” was tested, and the “time after X-ray irradiation until Antikörper in gleicher Menge wie unbestrahlte Kontrolltiere” value (AB/Bln.-Mäuse) was 34 Tage, the “TB-Antigene (Oberflächenantigene auf T-Suppressorlymphocyten bzw. cytotoxischen T-Lymphocyten)” value ([1]; lymphocytes of SLE patients after contact with N^ε-MAc-SP5) was “veränderten sich dagegen quantitativ nicht” and the “Anzahl von T4-Antigenen” value ([1]; lymphocytes of SLE patients before therapy, 2 h incubation with N^ε-MAc-SP5) was “quantitative Zunahme von T4-Antigenen; also recorded: permanent erhöhte Anzahl von T4-Antigenen”. The ³H-Thymidineinbauraten [2] was 820 ± 210 Impulse je Minute.
